The source of these data is patent US11851445B2, “Compounds and uses thereof” (Foghorn Therapeutics Inc., priority 2020, dated 2023).

The structures appear in SMILES notation. Entries after “also recorded” stand apart in the source; their conditions may differ.

In experiment [1] the test system is SYO-1 human biphasic synovial sarcoma tumor. Put plainly: SYO-1 xenograft tumor growth in NOD SCID mice. The settings on record: 1 mg/kg, i.p., daily, 3 weeks; FIG. 14. In kind it is in vivo. The method, then:
Method: NOD SCID mice (Beijing Anikeeper Biotech, Beijing) were inoculated subcutaneously on the right flank with the single cell suspension of SYO-1 human biphasic synovial sarcoma tumor cells (5×106) in 100 μL Dulbecco's Modified Eagle Medium (DMEM) with 10% fetal bovine serum (FBS). The mice were randomized into either control group [10% dimethyl sulfoxide (DMSO), 40% polyethylene glycol (PEG400) and 50% water], or treatment group D1 when the mean tumor size reached about 117 mm^3. Mice were dosed daily through intraperitoneal (i.p.) route over the course of 3 weeks. All dose volumes were adjusted by body weights in terms of mg/kg.

For a further experiment, the target named is T1, BRD9 (Homo sapiens, UniProt Q9H8M2).
T1 sequence (Q9H8M2 1-597): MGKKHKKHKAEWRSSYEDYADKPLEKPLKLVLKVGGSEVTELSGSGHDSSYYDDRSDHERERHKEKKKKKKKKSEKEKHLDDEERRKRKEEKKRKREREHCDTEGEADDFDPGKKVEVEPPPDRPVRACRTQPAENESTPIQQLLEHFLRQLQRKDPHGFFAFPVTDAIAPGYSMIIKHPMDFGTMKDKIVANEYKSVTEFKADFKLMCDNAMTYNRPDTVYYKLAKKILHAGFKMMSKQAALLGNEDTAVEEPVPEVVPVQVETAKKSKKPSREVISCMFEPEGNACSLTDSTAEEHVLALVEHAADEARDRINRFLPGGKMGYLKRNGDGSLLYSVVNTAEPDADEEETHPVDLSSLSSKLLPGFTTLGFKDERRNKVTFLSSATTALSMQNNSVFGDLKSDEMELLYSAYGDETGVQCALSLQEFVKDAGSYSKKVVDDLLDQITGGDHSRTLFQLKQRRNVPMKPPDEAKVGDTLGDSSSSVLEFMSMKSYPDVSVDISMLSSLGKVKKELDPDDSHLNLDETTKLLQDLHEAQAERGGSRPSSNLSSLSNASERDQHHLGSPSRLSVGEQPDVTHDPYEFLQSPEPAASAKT
Put plainly: BRD9 degradation in synovial sarcoma tumor in vivo, western blot (Example 12). The settings on record: 1 mg/kg, i.p., 4 weeks; tumors 8, 72 and 168 hours post last dose; FIG. 15. Further details: degradation endogenous BRD9 protein in two synovial sarcoma cell lines; endogenous in cells; host or cells: SYO1 (SYO-1) synovial sarcoma cells. On the procedure: Method: Mice were treated with D1, 1 mg/kg, i.p. for 4 weeks. Mice were then euthanized, and tumors were collected at 8 hours, 72 hours, and 168 hours post last dose. Tumors were lysed with 1× RIPA lysis buffer (Boston BioProducts, BP-115D) with protease and phosphatase protein inhibitor (Roche Applied Science #04906837001 & 05892791001). Equal amounts of lysate (30 μg) were loaded in 4-12% Bis-Tris Midi Protein Gels in 1×MOPS buffer; samples ran at 120 V for 120 minutes. Protein was transferred to membrane with TransBlot at 250 mA for 150 minutes, and then membranes were blocked with Odyssey blocking buffer for 1 hour at room temperature. Membranes were hybridized overnight in cold room with primary antibodies. Images acquired using Li-COR imaging system (Li-COR Biotechnology, Lincoln, Nebr.).
For orientation: In western blotting, separated proteins are transferred to a membrane and probed.

Experiment [2] deals with synovial sarcoma cell lines (SYO1, Yamato, HS-SY-II, and ASKA). Put plainly: Growth of synovial sarcoma cell lines (Example 2: confluency, crystal violet, colonies). Conditions: FIGS. 4, 5, 6. In kind it is cell-based. On the procedure:
(§1) Cells were treated with DMSO or the BRD9 degrader, Compound 1, at indicated concentrations, and proliferation was monitored from day 7 to day 14 by measuring confluency over time using an IncuCyte live cell analysis system (FIG. 4). Growth medium and compounds were refreshed every 3-4 days.
(§2) Cells were seeded into 12-well plates and treated with DMSO, 1 μM BRD9 inhibitor, Compound 2 (also known as BI-7273, see Martin et al, J Med Chem. 59(10):4462-4475 (2016); see structure of compound 2 below), or 1 μM BRD9 degrader, Compound 1.
(§3) The number of cells was optimized for each cell line. Growth medium and compounds were refreshed every 3-5 days. SYO1, Yamato, A549, 293T and HS-SY-II cells were fixed and stained at day 11. ASKA cells were fixed and stained at day 23. Staining was done by incubation with crystal violet solution (0.5 g Crystal Violet, 27 ml 37% Formaldehyde, 100 mL 10×PBS, 10 mL Methanol, 863 dH20 to 1 L) for 30 min followed by 3× washes with water and drying the plates for at least 24 h at room temperature. Subsequently plates were scanned on an Odyssey CLx Imaging system (FIG. 5).
(§4) Cells were seeded into 96-well ultra-low cluster plate (Costar, #7007) in 200 μL complete media and treated at day 2 with DMSO, Staurosporin, or BRD9 degrader, Compound 1, at indicated doses (FIG. 2C). Media and compounds were changed every 5 d and cell colonies were imaged at day 14.

Experiment [3] relates to non-synovial control cancer cell lines (293T, A549, G401). Put plainly: Growth of non-synovial control cancer cell lines (Example 2). In kind it is cell-based. The settings on record: FIGS. 4, 5, 6. On the procedure: as §1, §2, §3, §4
Experiment [4] deals with synovial sarcoma cell lines (SYO1, HS-SY-II, and ASKA). Put plainly: Growth of synovial sarcoma cell lines, crystal violet, day 14 (Example 3). In kind it is cell-based. The method, then:
(§5) Procedure: Cells were seeded into 6-well or 12-well plates and were treated daily with a BRD9 degrader (Compound 1), a bromo-domain BRD9 binder (Compound 2), E3 ligase binder (lenalidomide), DMSO, or staurosporin (positive control for cell killing), at indicated concentrations. The number of cells was optimized for each cell line. Growth media was refreshed every 5 days. By day 14, medium was removed, cells were washed with PBS, and stained using 500 μL of 0.005% (w/v) crystal violet solution in 25% (v/v) methanol for at least 1 hour at room temperature. Subsequently plates were scanned on an Odyssey CLx Imaging system.

Experiment [5] relates to non-synovial control cancer cell lines (RD, HCT116, and Calu6). Put plainly: Growth of non-synovial control cancer cell lines, crystal violet, day 14 (Example 3). In kind it is cell-based. Conditions: FIG. 8. The method, then: as §5
Experiment [6] has as its system SYO1 cells. Put plainly: Cell cycle analysis, Click-iT Plus EdU flow cytometry. In kind it is cell-based, human. Conditions: 200 nM or 1 μM, 8 or 13 days; compared to DMSO and lenalidomide. The method, then:
(§6) Procedure: SYO1 cells were treated for 8 or 13 days with DMSO, a BRD9 degrader (Compound 1) at 200 nM or 1 μM, or an E3 ligase binder (lenalidomide) at 200 nM. Compounds were refreshed every 5 days. Cell cycle analysis was performed using the Click-iT™ Plus EdU Flow Cytometry Assay (Invitrogen). The apoptosis assay was performed using the Annexin V-FITC Apoptosis Detection Kit (Sigma A9210). Assays were performed according to the manufacturer's protocol.

The subject of experiment [7] is SYO1 cells. Put plainly: Apoptosis assay, Annexin V-FITC. In kind it is cell-based, human. Conditions: 8 days; compared to DMSO controls. The method, then: as §6

Regarding `COc1cc(-c2cn(C)c(=O)c3cnc(N4CCC4)cc23)cc(OC)c1CN1CCC(CN2CCC3(CC2)CN(c2ccc4c(c2)C(=O)N(C2CCC(=O)NC2=O)C4)C3)CC1` (racemic) [Compound D1, 3-[6-(7-[[1-([4-[6-(azetidin-1-yl)-2-methyl-1-oxo-2,7-naphthyridin-4-yl]-2,6-dimethoxyphenyl]methyl)piperidin-4-yl]methyl]-2,7-diazaspiro[3.5]nonan-2-yl)-1-oxo-3H-isoindol-2-yl]piperidine-2,6-dione], the tumor growth result in experiment [1] is on record as “tumor growth inhibition”. Further, the “BRD9 level in tumor” value on BRD9 is “complete degradation of BRD9 target up to 168 hours after dose; also recorded: BRD9 inhibition”.
As for `COc1cc(-c2cn(C)c(=O)c3cnccc23)cc(OC)c1CN(C)CC(=O)NCCOCCOCCNc1cccc2c1C(=O)N(C1CCC(=O)NC1=O)C2=O` (stereo not drawn) [Compound 1, dBRD9], the “growth of the cells” value in experiment [2] is “inhibition of the growth of the cells”; in experiment [3] it was “does not result in inhibition of the growth”; in experiment [4] (SYO1, HS-SY-II, ASKA, day 14, FIG. 7) it was “inhibition of the growth of the cells”; in experiment [5] it was “did not result in inhibition of the growth”. Further, the “growth inhibition compared with the other treatments” value in experiment [4] (all synovial cell lines) was “most significant growth inhibition”. Besides, the “numbers of cells in the S-phase of the cell cycle” value in the experiment with SYO1 cells [6] is reported as “reduced numbers of cells in the S-phase”. Besides, in the experiment on SYO1 cells [7], the “numbers of early- and late-apoptotic cells” value was “increased numbers of early- and late-apoptotic cells”.
